# Data published in patent US9504702B2, “Methods of inhibition of protein fucosylation in vivo using fucose analogs” (Seattle Genetics, Inc., priority 2010, dated 2016).
# Assays:
# [1] = test system: core antibody fucosylation (endogenous antibodies); assay: Antibody fucosylation in vivo following oral administration, dose study (Example 3), dot blot; set-up: species or system Female BALC/c mice
# Experimental: In this study, the effects of oral administration of the fucose analog 2-fluorofucose (SGD-2083) were further examined. Female BALC/c mice were offered […] 2-fluorofucose in their drinking water for 14 days. Mice were immunized with TiterMAX Classic and offered 1, 10 and 100 mM 2-fluorofucose in their drinking water for an additional 7 days. Mice were then terminally bled and serum obtained. Endogenous antibodies were purified by passing the serum over a protein A column
# The collected antibodies were evaluated for fucosylation levels by dot blot as follows. Antibodies from untreated and treated animals (0.5 μg each), as well as standards of cAC10 with 0 to 100% fucose (only study 1), were blotted onto a nitrocellulose membrane. The proteins levels were visualized with Ponceau S. The blot was probed with biotinylated AOL lectin and developed with streptavidin HRP and ECL (as described above). Gel loading (visible) and fucose signals (bioluminescence) were measured with an Alpha Innotech camera and quantitated with the machine software.
# [2] = test system: Caki-1 renal cell carcinoma; assay: Xenograft of pre-treated Caki-1 cells (Example 7, Study 2); format: in vivo, female nude mice; conditions: 20 mM in drinking water, not in first treatment period, observed in second
# Experimental: (§1) To further evaluate the activity of these fucose analogs, further studies were performed in vivo using tumor cells that had been pre-treated by culturing in the presence of a fucose analog, or using untreated tumor cells. Tumor cells were implanted into 10 mice per group as follows. For the LS174T, PC-3, and Caki-1 cell lines, 5×10^5 cells in 25% Matrigel were implanted subcutaneously into female nude mice. For HL-60 and Ramos cell lines, 5×10^6 cells were implanted subcutaneously into female SCID mice. For mice implanted with untreated tumor cells, mice were provided regular drinking water. For mice implanted with tumor cells pre-treated with 2-fluorofucose (SGD-2083), the mice were provided drinking water supplemented with 20 mM 2-fluorofucose (SGD-2083). For mice implanted with tumor cells pre-treated with alkylnyl fucose (SGD-1887), the mice were provided with regular drinking water.
# (§2) After 3 weeks of receiving 2-fluorofucose-containing drinking water, mice were returned to regular drinking water, except for mice with Caki-1 tumors. The latter mice were returned to regular drinking water for one week. After the week of receiving regular water, mice were randomized to two groups of 5 each to receive drinking water supplemented with 20 mM 2-fluorofucose or regular drinking water. Mice were sacrificed when tumors reached about 1000 mm^3.
# [3] = test system: circulating white blood cells and neutrophils; lymph nodes; assay: Leukocytosis and lymph node cellularity following oral dosing; format: in vivo, Female Balb/c mice
# Experimental: (§3) The effects of a fucose analog on leukocytosis and E-selectin binding were eamined in mice. Female Balb/c mice were given oral 2-fluorofucose (SGD-2083) in the drinking water or left untreated. Mice were bled prior to dosing and then weekly for three weeks to assess circulating cell numbers and their ability to bind E-selectin. In one study, 2-fluorofucose was formulated at 1 mM, 10 mM or 100 mM in the drinking water (n=3 per group). At day 14, mice were treated with TiterMAX® Classic adjuvant (Sigma) to stimulate polyclonal, antigen non-specific antibody production by B cells, and remained on the 2-fluorofucose-containing water through day 21. In a second study, mice were given oral 2-fluorofucose formulated at 10 mM and 100 mM in the drinking water for three weeks without any other treatments (n=6). On day 21, a pool of lymph nodes (axillary, brachial, superficial inguinal, and mesenteric) from each of three animals was assessed in addition to blood. Lymph nodes were homogenized into single cell suspensions, and total cell numbers were determined by counting on a hemcytometer, using Trypan Blue for dead cell exclusion. To determine total white cell numbers/μL blood, samples of blood from individual animals were counted on a hemacytometer, using Turk's solution (0.01% gentian violet in 3% acetic acid) to exclude red blood cells (RBCs). RBCs were eliminated from the remainder of the blood by osmotic lysis for flow cytometric analysis. Cells were incubated with anti-Gr-1-FITC antibodies (BD Biosciences) to identify neutrophils, and a recombinant E-selectin-human Fc fusion protein (R&D Systems). Cells were washed and then incubated with a PE-labeled goat anti-human IgG-Fc secondary antibody (Jackson Immunoresearch) to detect bound E-selectin. Samples were collected on a FACSCalibur flow cytometer and analyzed using CellQuest software. The percentage of Gr-1+ cells was determined and absolute number of neutrophils was calculated using the total white cell number from the hemacytometer count. In addition, flow samples were gated for Gr-1+ cells to assess E-selectin binding to neutrophils by histogram analysis. The geometric mean of the E-selectin fluorescent signal was determined from the histogram.
# [4] = test system: Ramos Burkitt lymphoma; assay: Xenograft of pre-treated Ramos cells (Example 7, Study 2); format: in vivo, female SCID mice; conditions: 20 mM in drinking water
# Experimental: as §1, §2
# [5] = test system: HL-60 acute mylogenous leukemia; assay: Xenograft of pre-treated HL-60 cells (Example 7, Study 2); format: in vivo, female SCID mice; conditions: 20 mM in drinking water
# Experimental: as §1, §2
# [6] = test system: PC-3; assay: Xenograft of pre-treated PC-3 cells (Example 7, Study 2); format: in vivo, female nude mice; conditions: 20 mM in drinking water
# Experimental: as §1, §2
# [7] = test system: LS174T colon adenocarcinoma cells; assay: Xenograft of LS174T cells without prior treatment (Example 7, Study 3); format: in vivo, female nude mice
# Experimental: In a third study, tumor cells were implanted without prior treatment with a fucose analog. LS174T colon adenocarcinoma cells (5×10^5 cells in 25% Matrigel) were implanted subcutaneously into female nude mice. Mice were supplied with 50 mM 2-fluorofucose (SGD-2083) in their drinking water from 7 days before implant until 21 days after implant, or were supplied with regular drinking water.
# [8] = test system: LS174T colon adenocarcinoma; assay: Xenograft of pre-treated LS174T cells (Example 7, Study 2); format: in vivo, female nude mice; conditions: 20 mM in drinking water
# Experimental: as §1, §2
# [9] = test system: E-selectin binding to neutrophils; assay: E-selectin binding to neutrophils following oral dosing, flow cytometry; format: in vivo, Female Balb/c mice
# Experimental: as §3, with “In addition, flow samples were gated for Gr-1+ cells to assess E-selectin binding to neutrophils by histogram analysis.” left out
# [10] = oral in drinking water, dose-dependent
smiles,measurement,setting,value
"C[C@H](O)[C@@H](O)[C@@H](O)[C@H](F)C=O [SGD-2083, 2-fluoro-2-deoxy fucose]",antibody fucosylation levels,[1]; 1 mM in drinking water,highest in the untreated control and 1 mM 2-fluorofucose groups
same,fucosylation levels of antibodies,"[1]; 1, 10 and 100 mM in drinking water, 21 days",dose-dependent decrease
same,antibody fucosylation levels,"[1]; intermediate concentration (10 mM) in drinking water, compared with 100 mM",nearly as depleted of fucose as the high concentration
same,tumor growth,[2],tumor growth inhibition in vivo was seen
same,effect on circulating white blood cells and neutrophils,[3]; 1 mM in drinking water,very little effect
same,effect on circulating white blood cells and neutrophils,[3]; 10 mM and 100 mM in drinking water,increasing effect
same,cellularity in the lymph nodes,"[3]; day 21, second study, 10 mM and 100 mM in drinking water, more severe at 100 mM",marked decreased
same,circulating white blood cells and neutrophils,[3]; [10],increase
same,tumor growth,[4],No change in tumor growth
same,tumor growth,[5],No change in tumor growth
same,tumor growth,[6],tumor growth inhibition in vivo was seen
same,tumor growth,[7]; 50 mM in drinking water,substantial inhibition of tumor growth
same,average tumor size,"[7]; 50 mM in drinking water from 7 days before until 21 days after implant, regular water 734 mm^3",110 mm^3
same,tumor growth,[8],tumor growth inhibition in vivo was seen
same,effect on E-selectin binding to neutrophils,[9]; 1 mM,little effect
same,effect on E-selectin binding to neutrophils,[9]; 10 mM and 100 mM,increasing effects
same,E-selectin binding to neutrophils,[9]; [10],decreased
